In the supplement of paper PMC10307832:

Assays:
Assay in all cases: relative viability (nuclei count vs DMSO), 5 days (fraction); higher = more cells survive
[1] = system: A549
In short: (§1)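 The day after seeding in 1536-well plates, lung cancer cell lines were treated by pin tool with a single drug, or with a fixed anchor-drug dose together with five library-drug doses (not always all listed) in √10 steps. After 5 days, a combined fix-and-stain solution (final 0.05% Triton X-100, 1% formaldehyde, 1 ug/ml Hoechst) was added. Nuclei counted on 4× images gave relative viability as treated counts over vehicle counts, reported as the median of duplicate plates.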

[2] = system: ABC-1
In short: as §1

[3] = system: EKVX
In short: as §1

[4] = system: NCI-H1623
In short: as §1

[5] = system: NCI-H2126
In short: as §1

[6] = system: NCI-H522
In short: as §1

[7] = system: Calu-6
In short: as §1

[8] = system: EBC-1
In short: as §1

[9] = system: IA-LM
In short: as §1

[10] = system: NCI-H1299
In short: as §1

[11] = system: NCI-H1703
In short: as §1

Question: How did the relative viability ([1]; first compound 0.005 µM) turn out when `CC1(C)CCC(c2ccc(Cl)cc2)=C(CN2CCN(c3ccc(C(=O)NS(=O)(=O)c4ccc(N[C@H](CCN5CCOCC5)CSc5ccccc5)c(S(=O)(=O)C(F)(F)F)c4)cc3)CC2)C1` [Navitoclax] + N=C(N)NC(=N)NCCc1ccccc1 [Phenformin] (partner 250 µM) was run?
Answer: Its relative viability is 0.146.

Question: What about the relative viability ([1]; first compound 0.01581 µM) of the same compound?
Answer: Its relative viability is 0.19.

Question: And the relative viability ([1]; first compound 0.05 µM)?
Answer: Its relative viability is 0.144.

Question: And the relative viability ([1]; first compound 0.1581 µM)?
Answer: Its relative viability is 0.157.

Question: What about the relative viability ([1]; first compound 0.5 µM) of the same compound?
Answer: The relative viability was 0.146.

Question: And the relative viability ([2]; first compound 0.005 µM)?
Answer: Its relative viability is 0.245.

Question: And the relative viability ([2]; first compound 0.01581 µM)?
Answer: Its relative viability is 0.292.

Question: What about the relative viability ([2]; first compound 0.05 µM) of the same compound?
Answer: Its relative viability is 0.277.

Question: What about the relative viability ([2]; first compound 0.1581 µM) of the same compound?
Answer: The relative viability was 0.257.

Question: And the relative viability ([2]; first compound 0.5 µM)?
Answer: The relative viability was 0.215.

Question: What about the relative viability ([3]; first compound 0.005 µM) of the same compound?
Answer: Its relative viability is 0.262.

Question: What about the relative viability ([3]; first compound 0.01581 µM) of the same compound?
Answer: Its relative viability is 0.238.

Question: What about the relative viability ([3]; first compound 0.05 µM) of the same compound?
Answer: Its relative viability is 0.226.

Question: And the relative viability ([3]; first compound 0.1581 µM)?
Answer: The relative viability was 0.239.

Question: And the relative viability ([3]; first compound 0.5 µM)?
Answer: The relative viability was 0.235.

Question: What about the relative viability ([4]; first compound 0.005 µM) of the same compound?
Answer: The relative viability was 0.624.

Question: And the relative viability ([4]; first compound 0.01581 µM)?
Answer: The relative viability was 0.671.

Question: What about the relative viability ([4]; first compound 0.05 µM) of the same compound?
Answer: The relative viability was 0.58.

Question: What about the relative viability ([4]; first compound 0.1581 µM) of the same compound?
Answer: The relative viability was 0.567.

Question: And the relative viability ([4]; first compound 0.5 µM)?
Answer: Its relative viability is 0.555.

Question: What about the relative viability ([5]; first compound 0.005 µM) of the same compound?
Answer: The relative viability was 0.527.

Question: What about the relative viability ([5]; first compound 0.01581 µM) of the same compound?
Answer: Its relative viability is 0.53.

Question: And the relative viability ([5]; first compound 0.05 µM)?
Answer: The relative viability was 0.45.

Question: And the relative viability ([5]; first compound 0.1581 µM)?
Answer: The relative viability was 0.42.

Question: What about the relative viability ([5]; first compound 0.5 µM) of the same compound?
Answer: The relative viability was 0.444.

Question: And the relative viability ([6]; first compound 0.005 µM)?
Answer: The relative viability was 0.633.

Question: What about the relative viability ([6]; first compound 0.01581 µM) of the same compound?
Answer: The relative viability was 0.603.

Question: What about the relative viability ([6]; first compound 0.05 µM) of the same compound?
Answer: The relative viability was 0.701.

Question: And the relative viability ([6]; first compound 0.1581 µM)?
Answer: The relative viability was 0.695.

Question: What about the relative viability ([6]; first compound 0.5 µM) of the same compound?
Answer: Its relative viability is 0.699.

Question: For `Oc1nc(-c2ccc(C(F)(F)F)cc2)nc2c1CSCC2` [XAV939] + COc1cc2c(Oc3ccc(NC(=O)C4(C(=O)Nc5ccc(F)cc5)CC4)cc3F)ccnc2cc1OCCCN1CCOCC1 [Foretinib] (partner 0.25 µM), which relative viability ([1]; first compound 0.08 µM) is on record?
Answer: The relative viability was 0.992.

Question: And the relative viability ([1]; first compound 0.8 µM)?
Answer: Its relative viability is 0.883.

Question: And the relative viability ([1]; first compound 2.53 µM)?
Answer: The relative viability was 0.9.

Question: What about the relative viability ([2]; first compound 0.08 µM) of the same compound?
Answer: Its relative viability is 1.16.

Question: What about the relative viability ([2]; first compound 0.253 µM) of the same compound?
Answer: Its relative viability is 0.732.

Question: And the relative viability ([2]; first compound 0.8 µM)?
Answer: Its relative viability is 0.935.

Question: What about the relative viability ([2]; first compound 2.53 µM) of the same compound?
Answer: Its relative viability is 0.635.

Question: And the relative viability ([7]; first compound 0.08 µM)?
Answer: Its relative viability is 0.88.

Question: And the relative viability ([7]; first compound 0.253 µM)?
Answer: The relative viability was 0.704.

Question: And the relative viability ([7]; first compound 0.8 µM)?
Answer: The relative viability was 0.776.

Question: And the relative viability ([7]; first compound 2.53 µM)?
Answer: The relative viability was 0.819.

Question: What about the relative viability ([8]; first compound 0.08 µM) of the same compound?
Answer: Its relative viability is 0.108.

Question: What about the relative viability ([8]; first compound 0.253 µM) of the same compound?
Answer: The relative viability was 0.113.

Question: What about the relative viability ([8]; first compound 0.8 µM) of the same compound?
Answer: The relative viability was 0.106.

Question: What about the relative viability ([8]; first compound 2.53 µM) of the same compound?
Answer: Its relative viability is 0.0948.

Question: What about the relative viability ([3]; first compound 0.08 µM) of the same compound?
Answer: Its relative viability is 0.876.

Question: And the relative viability ([3]; first compound 0.253 µM)?
Answer: Its relative viability is 0.628.

Question: What about the relative viability ([3]; first compound 0.8 µM) of the same compound?
Answer: Its relative viability is 0.675.

Question: And the relative viability ([3]; first compound 2.53 µM)?
Answer: Its relative viability is 0.793.

Question: What about the relative viability ([9]; first compound 0.08 µM) of the same compound?
Answer: Its relative viability is 1.29.

Question: What about the relative viability ([9]; first compound 0.253 µM) of the same compound?
Answer: The relative viability was 0.968.

Question: What about the relative viability ([9]; first compound 0.8 µM) of the same compound?
Answer: The relative viability was 1.09.

Question: What about the relative viability ([9]; first compound 2.53 µM) of the same compound?
Answer: The relative viability was 0.729.

Question: What about the relative viability ([10]; first compound 0.08 µM) of the same compound?
Answer: Its relative viability is 1.13.

Question: And the relative viability ([10]; first compound 0.253 µM)?
Answer: The relative viability was 1.11.

Question: What about the relative viability ([10]; first compound 0.8 µM) of the same compound?
Answer: The relative viability was 1.07.

Question: What about the relative viability ([10]; first compound 2.53 µM) of the same compound?
Answer: Its relative viability is 1.08.

Question: And the relative viability ([4]; first compound 0.08 µM)?
Answer: The relative viability was 0.826.

Question: And the relative viability ([4]; first compound 0.253 µM)?
Answer: Its relative viability is 0.75.

Question: What about the relative viability ([4]; first compound 0.8 µM) of the same compound?
Answer: Its relative viability is 0.703.

Question: What about the relative viability ([4]; first compound 2.53 µM) of the same compound?
Answer: The relative viability was 0.677.

Question: And the relative viability ([11]; first compound 0.08 µM)?
Answer: The relative viability was 0.348.

Question: And the relative viability ([11]; first compound 0.253 µM)?
Answer: The relative viability was 0.377.

Question: And the relative viability ([11]; first compound 0.8 µM)?
Answer: Its relative viability is 0.416.

Question: And the relative viability ([11]; first compound 2.53 µM)?
Answer: Its relative viability is 0.374.

Question: What about the relative viability ([5]; first compound 0.08 µM) of the same compound?
Answer: Its relative viability is 1.1.

Question: What about the relative viability ([5]; first compound 0.253 µM) of the same compound?
Answer: The relative viability was 0.989.

Question: What about the relative viability ([5]; first compound 0.8 µM) of the same compound?
Answer: The relative viability was 1.17.

Question: And the relative viability ([5]; first compound 2.53 µM)?
Answer: The relative viability was 0.725.

Question: Which relative viability ([1]; first compound 0.08 µM) does the source give for `Oc1nc(-c2ccc(C(F)(F)F)cc2)nc2c1CSCC2` [XAV939] + N=C(N)NC(=N)NCCc1ccccc1 [Phenformin] (partner 250 µM) here?
Answer: The relative viability was 0.136.

Question: And the relative viability ([1]; first compound 0.253 µM)?
Answer: The relative viability was 0.218.

Question: What about the relative viability ([1]; first compound 0.8 µM) of the same compound?
Answer: Its relative viability is 0.129.

Question: What about the relative viability ([1]; first compound 2.53 µM) of the same compound?
Answer: The relative viability was 0.175.

Question: And the relative viability ([2]; first compound 0.08 µM)?
Answer: The relative viability was 0.212.

Question: And the relative viability ([2]; first compound 0.253 µM)?
Answer: Its relative viability is 0.272.

Question: And the relative viability ([2]; first compound 0.8 µM)?
Answer: The relative viability was 0.256.

Question: What about the relative viability ([2]; first compound 2.53 µM) of the same compound?
Answer: Its relative viability is 0.233.

Question: And the relative viability ([3]; first compound 0.08 µM)?
Answer: The relative viability was 0.219.

Question: And the relative viability ([3]; first compound 0.253 µM)?
Answer: Its relative viability is 0.225.

Question: What about the relative viability ([3]; first compound 0.8 µM) of the same compound?
Answer: Its relative viability is 0.213.

Question: What about the relative viability ([3]; first compound 2.53 µM) of the same compound?
Answer: The relative viability was 0.221.

Question: What about the relative viability ([4]; first compound 0.08 µM) of the same compound?
Answer: Its relative viability is 0.578.

Question: And the relative viability ([4]; first compound 0.253 µM)?
Answer: Its relative viability is 0.555.

Question: What about the relative viability ([4]; first compound 0.8 µM) of the same compound?
Answer: The relative viability was 0.59.

Question: What about the relative viability ([4]; first compound 2.53 µM) of the same compound?
Answer: Its relative viability is 0.591.

Question: And the relative viability ([5]; first compound 0.08 µM)?
Answer: Its relative viability is 0.577.

Question: And the relative viability ([5]; first compound 0.253 µM)?
Answer: The relative viability was 0.494.

Question: What about the relative viability ([5]; first compound 0.8 µM) of the same compound?
Answer: The relative viability was 0.48.

Question: What about the relative viability ([5]; first compound 2.53 µM) of the same compound?
Answer: Its relative viability is 0.516.

Question: And the relative viability ([6]; first compound 0.08 µM)?
Answer: Its relative viability is 0.599.

Question: And the relative viability ([6]; first compound 0.253 µM)?
Answer: Its relative viability is 0.707.

Question: And the relative viability ([6]; first compound 0.8 µM)?
Answer: The relative viability was 0.594.

Question: And the relative viability ([6]; first compound 2.53 µM)?
Answer: The relative viability was 0.599.
